{"source": "ChEMBL document CHEMBL5154877", "about": "“Novel Sphingosine Kinase 1 Inhibitor Suppresses Growth of Solid Tumor and Inhibits the Lung Metastasis of Triple-Negative Breast Cancer” (J Med Chem, 2022)", "molecular_target": "T1, Sphingosine kinase 2 (Homo sapiens, UniProt Q9NRA0)", "T1 sequence (Q9NRA0 whole entry)": "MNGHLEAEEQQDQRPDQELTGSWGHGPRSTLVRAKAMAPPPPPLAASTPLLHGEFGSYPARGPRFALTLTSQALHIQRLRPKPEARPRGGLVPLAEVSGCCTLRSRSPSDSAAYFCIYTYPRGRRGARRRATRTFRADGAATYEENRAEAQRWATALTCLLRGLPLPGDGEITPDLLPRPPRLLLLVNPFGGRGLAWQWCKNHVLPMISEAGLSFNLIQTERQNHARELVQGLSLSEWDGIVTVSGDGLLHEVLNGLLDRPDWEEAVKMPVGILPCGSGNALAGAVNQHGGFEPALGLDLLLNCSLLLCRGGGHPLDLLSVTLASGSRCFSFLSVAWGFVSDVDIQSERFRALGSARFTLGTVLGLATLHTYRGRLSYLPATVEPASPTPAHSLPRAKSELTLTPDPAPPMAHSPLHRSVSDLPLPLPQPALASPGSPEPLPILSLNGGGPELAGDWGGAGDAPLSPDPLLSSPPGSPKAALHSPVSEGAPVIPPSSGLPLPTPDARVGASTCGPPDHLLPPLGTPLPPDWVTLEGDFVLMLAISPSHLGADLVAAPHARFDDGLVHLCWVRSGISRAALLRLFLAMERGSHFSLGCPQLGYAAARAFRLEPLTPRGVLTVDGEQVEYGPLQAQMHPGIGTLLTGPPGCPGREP"}
{"smiles": "Cc1cc(CS(=O)(=O)c2ccccc2)cc(OCc2ccc(CN3CCCCC3CO)cc2)c1", "note": "(centres undefined)", "values": [{"measurement": "IC50", "result": "> 10", "unit": "µM"}]}
{"smiles": "Cc1cc(CS(=O)(=O)c2ccccc2)cc(OCCCCCCCN2CCC[C@@H]2CO)c1", "values": [{"measurement": "IC50", "result": "> 10", "unit": "µM"}]}
{"smiles": "O=S(=O)(Cc1cc(OCc2ccc(CN3CCC[C@@H]3CO)cc2)cc(C(F)(F)F)c1)c1ccccc1", "values": [{"measurement": "IC50", "result": "> 10", "unit": "µM"}]}
{"smiles": "Cc1cc(CS(=O)(=O)c2ccc([N+](=O)[O-])cc2)cc(OCc2ccc(CN3CCC[C@@H]3CO)cc2)c1", "values": [{"measurement": "IC50", "result": "> 10", "unit": "µM"}]}
